Each structure is given as a SMILES string.

For three molecules, IC50, inhibition and Activity results are on record in ChEMBL document CHEMBL3352731, “Evaluation of gambierol and its analogs for their inhibition of human Kv1.2 and cytotoxicity” (Bioorg Med Chem Lett, 2015).

In data set [1] the test system is CHO. The experiment in a line: Cytotoxicity against wild-type CHO cells assessed as growth inhibition after 72 hrs by WST-8 assay. Format: cell-based. The note with it: Cricetulus griseus. (In general: Formazan colour is commonly taken as a measure of viable cells.)
Data set [2] concerns the target Potassium voltage-gated channel subfamily A member 2 (Homo sapiens) (UniProt P16389). The experiment in a line: Inhibition of human Kv 1.2 stably expressed in CHO cells by whole cell patch clamp method. It counts as cell-based.
In data set [3] the test system is CHO. The experiment in a line: Cytotoxicity against CHO cells transfected with human Kv 1.2 assessed as growth inhibition after 72 hrs by WST-8 assay. The note with it: Cricetulus griseus. Format: cell-based.
Data set [4] deals with CHO. The experiment in a line: Induction of leak current in wild-type CHO cells by electrophysiology method. Format: cell-based, Cricetulus griseus. The note with it: chinese hamster.

Potassium voltage-gated channel subfamily A member 2 (Homo sapiens), sequence (P16389 whole entry): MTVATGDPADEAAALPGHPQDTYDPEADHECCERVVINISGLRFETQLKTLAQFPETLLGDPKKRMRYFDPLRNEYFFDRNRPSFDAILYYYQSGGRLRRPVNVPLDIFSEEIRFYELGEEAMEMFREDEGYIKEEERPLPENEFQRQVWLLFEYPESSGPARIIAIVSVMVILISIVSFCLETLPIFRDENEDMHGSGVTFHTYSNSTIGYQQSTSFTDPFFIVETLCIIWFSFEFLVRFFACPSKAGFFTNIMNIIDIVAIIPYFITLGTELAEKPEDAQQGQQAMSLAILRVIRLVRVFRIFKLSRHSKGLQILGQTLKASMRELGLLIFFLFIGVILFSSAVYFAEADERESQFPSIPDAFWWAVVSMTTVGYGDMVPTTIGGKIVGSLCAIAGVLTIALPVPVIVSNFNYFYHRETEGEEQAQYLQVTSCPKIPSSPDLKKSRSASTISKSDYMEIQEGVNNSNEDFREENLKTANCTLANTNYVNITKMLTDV

In the case of `C=CC/C=C\C=C/[C@H]1O[C@H]2C[C@H]3O[C@H]4CC[C@H]5O[C@H]6C[C@@]7(C)O[C@@]8(C)[C@@H](O)C[C@H](CCCO)O[C@@H]8C[C@@H]7O[C@@H]6C[C@@H]5O[C@]4(C)C[C@]3(C)O[C@@H]2C=C[C@]1(C)O`, the IC50 (as a rule, the midpoint of a concentration-inhibition curve) worked out at 78 µM in the data set on CHO [1] and 95 µM in the data set with CHO [3]. For the same molecule, the inhibition result in data set [2] was “Dose-dependent effect”. Further, the Activity result in the data set on CHO [4] is listed as “Dose-dependent effect”.
`C=CC/C=C\C=C/[C@H]1O[C@H]2C[C@H]3O[C@H]4CC[C@H]5O[C@H]6C[C@@]7(C)OCCC[C@@H]7O[C@@H]6C[C@@H]5O[C@]4(C)C[C@]3(C)O[C@@H]2C=C[C@]1(C)O`: the IC50 amounted to 6 µM with CHO [1] and 6.5 µM in the data set with CHO [3].
In the case of `C=CC/C=C\C=C/[C@H]1O[C@H]2C[C@H]3O[C@H]4CCCCO[C@]4(C)C[C@]3(C)O[C@@H]2C=C[C@]1(C)O`, the IC50 in the data set on CHO [1] and in the data set on CHO [3] was > 100 µM each time.
